Data from ChEMBL document CHEMBL4819135, “Design, synthesis and anti-HIV evaluation of novel 5-substituted diarylpyrimidine derivatives as potent HIV-1 NNRTIs” (Bioorg Med Chem, 2021).

Columns and labels:
[1] = system: Human immunodeficiency virus 1; assay: Antiviral activity against HIV-1 IIIB infected in human MT4 cells assessed as protection against virus-induced cytotoxicity after 5 days by MTT assay; type: functional, organism-based; conditions: Human immunodeficiency virus 1, IIIB, MT4, 120 h
[2] = Antiviral activity against HIV-2 ROD infected in human MT4 cells assessed as protection against virus-induced cytotoxicity incubated for 5 days by MTT assay; type: functional, cell-based; conditions: HIV-2, ISOLATE ROD, MT4, 120 h
[3] = system: Human immunodeficiency virus 1; assay: Antiviral activity against HIV-1 IIIB harboring RT E138K mutant infected in human MT4 cells assessed as protection against virus-induced cytotoxicity incubated for 5 days by MTT assay; type: functional, organism-based; conditions: Human immunodeficiency virus 1, IIIB, MT4, 120 h
[4] = system: Human immunodeficiency virus 1; assay: Antiviral activity against HIV-1 IIIB harboring RT F227L/V106A mutant infected in human MT4 cells assessed as protection against virus-induced cytotoxicity incubated for 5 days by MTT assay; type: functional, organism-based; conditions: Human immunodeficiency virus 1, IIIB, MT4, 120 h
[5] = system: Human immunodeficiency virus 1; assay: Antiviral activity against HIV-1 IIIB harboring RT L100I mutant infected in human MT4 cells assessed as protection against virus-induced cytotoxicity incubated for 5 days by MTT assay; type: functional, organism-based; conditions: Human immunodeficiency virus 1, IIIB, MT4, 120 h
[6] = system: Human immunodeficiency virus 1; assay: Antiviral activity against HIV-1 IIIB harboring RT Y188L mutant infected in human MT4 cells assessed as protection against virus-induced cytotoxicity incubated for 5 days by MTT assay; type: functional, organism-based; conditions: Human immunodeficiency virus 1, IIIB, MT4, 120 h
[7] = system: Human immunodeficiency virus 1; assay: Antiviral activity against HIV-1 IIIB harboring RT Y181C mutant infected in human MT4 cells assessed as protection against virus-induced cytotoxicity incubated for 5 days by MTT assay; type: functional, organism-based; conditions: Human immunodeficiency virus 1, IIIB, MT4, 120 h
[8] = system: Human immunodeficiency virus 1; assay: Antiviral activity against HIV-1 RES056 infected in human MT4 cells assessed as protection against virus-induced cytotoxicity incubated for 5 days by MTT assay; type: functional, organism-based; conditions: Human immunodeficiency virus 1, RES056, MT4, 120 h
[9] = system: Human immunodeficiency virus 1; assay: Antiviral activity against HIV-1 IIIB harboring RT K103N mutant infected in human MT4 cells assessed as protection against virus-induced cytotoxicity incubated for 5 days by MTT assay; type: functional, organism-based; conditions: Human immunodeficiency virus 1, IIIB, MT4, 120 h
[10] = Cytotoxicity against human MT4 cells assessed as reduction in cell viability after 5 days by MTT assay; type: cell-based; conditions: time 5 day
[11] = system: Human immunodeficiency virus 1; assay: Antiviral activity against HIV-1 IIIB; type: functional, organism-based; conditions: Human immunodeficiency virus 1, IIIB

| EC50 [11] | Compound | EC50 [1] | EC50 [2] | EC50 [3] | EC50 [4] | EC50 [5] | EC50 [6] | EC50 [7] | EC50 [8] | EC50 [9] | CC50 at 120 h [10] |
| --- | --- | --- | --- | --- | --- | --- | --- | --- | --- | --- | --- |
| – | Cc1cc(C#N)cc(C)c1Oc1nc(Nc2ccc(C#N)cc2)ncc1-c1ccc(Cl)cc1 | 14.4 nM | > 72600 nM | 72.6 nM | 902 nM | 216 nM | 567 nM | 250 nM | 5120 nM | 19.5 nM | 72600 nM |
| – | COc1ccc(-c2cnc(Nc3ccc(C#N)cc3)nc2Oc2c(C)cc(C#N)cc2C)cc1 | 8 nM | > 279000 nM | 38.4 nM | 278 nM | 164 nM | 143 nM | 186 nM | 3770 nM | 14.6 nM | > 279000 nM |
| – | Cc1cc(C)cc(-c2cnc(Nc3ccc(C#N)cc3)nc2Oc2c(C)cc(C#N)cc2C)c1 | 102 nM | > 38800 nM | 319 nM | 1110 nM | 421 nM | 2230 nM | 833 nM | > 38800 nM | 135 nM | 39000 nM |
| – | Cc1cc(C#N)cc(C)c1Oc1nc(Nc2ccc(C#N)cc2)ncc1-c1ccoc1 | 3.3 nM | > 4980 nM | 9.3 nM | 32.4 nM | 19.1 nM | 22.6 nM | 17.9 nM | 395 nM | 4.4 nM | 4980 nM |
| – | Cc1cc(C#N)cc(C)c1Oc1nc(Nc2ccc(C#N)cc2)ncc1-c1ccc2ccccc2c1 | 16.8 nM | > 8460 nM | 76.9 nM | 1200 nM | 195 nM | 849 nM | 356 nM | > 8460 nM | 35.7 nM | 8460 nM |
| – | Cc1cc(C#N)cc(C)c1Oc1nc(Nc2ccc(C#N)cc2)ncc1-c1cncnc1 | 4.6 nM | > 298000 nM | 11.8 nM | 325 nM | 38.3 nM | 73.4 nM | 32.4 nM | 316 nM | 5.3 nM | > 298000 nM |
| – | Cc1ccc(-c2cnc(Nc3ccc(C#N)cc3)nc2Oc2c(C)cc(C#N)cc2C)cc1 | 11.7 nM | > 26100 nM | 57.2 nM | 707 nM | 138 nM | 267 nM | 347 nM | > 10600 nM | 20.3 nM | 26100 nM |
| 1.6 nM | Cc1cc(C#N)cc(C)c1Oc1nc(Nc2ccc(C#N)cc2)nc2ccsc12 | – | – | – | – | – | – | – | – | – | – |
| – | Cc1cc(C#N)cc(C)c1Oc1nc(Nc2ccc(C#N)cc2)ncc1-c1ccc(N)cc1 | 3.5 nM | > 310 nM | 10.5 nM | 44.1 nM | 20.5 nM | 33.5 nM | 41.6 nM | > 306 nM | 3.8 nM | 310 nM |
| – | Cc1cc(C#N)cc(C)c1Oc1nc(Nc2ccc(C#N)cc2)ncc1-c1ccco1 | 3.6 nM | > 307000 nM | 9.3 nM | 75.3 nM | 24.8 nM | 37.4 nM | 30.4 nM | 1010 nM | 4.7 nM | > 307000 nM |
| – | Cc1cc(C#N)cc(C)c1Oc1nc(Nc2ccc(C#N)cc2)ncc1-c1ccsc1 | 4.1 nM | > 3920 nM | 10.7 nM | 64.8 nM | 53.4 nM | 41.8 nM | 57.1 nM | 1440 nM | 4.3 nM | 3920 nM |
